System: AS mice (Ube3am−/p+ KO mice) with LTP deficits
Experiment: LTP deficits in cognitively deficient (AS) mice; fEPSP recording in hippocampal slices after oral treatment
Format: in vivo
Experimental: For all behavioral and electrophysiology experiments female Ube3am−/p+ KO mice (i.e., AS mice) were crossed with wild-type males, to generate heterozygous AS mice and littermate controls in the F1 hybrid 12952-057BL/6 background. The AS mice have cognitive deficits, including long term potentiation (LTP) deficits.
Control mice (“wt”) were treated with vehicle while AS mice were treated with vehicle or MK-8998 (“CX”) at 30 mg/kg or at 60 mg/kg dose given orally twice per day in the morning and afternoon. Dosing was carried out for one week before testing, then behavioral tests were carried out on the animals over a 5-week period.
After the behavioural tests, animals remained under treatment until the animals were sacrificed one hour after the last drug administration. […] LTP was evoked using the 10 Theta burst protocol (10 trains of 4 stimuli at 100 Hz, 200 ms apart), performed at two-third of the maximum fEPSP. fEPSP sizes were recorded once per minute. Potentiation was measured as the normalized increase of the mean fEPSP slope for the duration of the baseline. […] Final LTP was determined over the last 10 min of the recording. […]
LTP was evoked using the 10 Theta burst protocol (10 trains of 4 stimuli at 100 Hz, 200 ms apart), performed at two-third of the maximum fEPSP. Final LTP was determined over the last 10 min of the recording. […]

SMILES: CC(C)c1ccc(CC(=O)N[C@H](C)c2ccc(OCC(F)(F)F)cn2)cc1 [MK-8998]
- P, post hoc Bonferroni multiple comparisons, AS Vehicle vs treated (LTP) (30 mg/kg): 0.01
- P, post hoc Bonferroni multiple comparisons, AS Vehicle vs treated (LTP) (60 mg/kg): 0.02

— US11324733B2, “Methods for improving memory and cognition and for treating memory and cognitive disorders” (Cavion, Inc., priority 2017, dated 2022)
